Experimental data: ChEMBL document CHEMBL2074129 (J Clin Invest, 1995)

Key:
[1] = target: ATP-dependent translocase ABCB1 (Mus musculus, UniProt P21447); assay: TP_TRANSPORTER: transepithelial transport (basal to apical) in mdr1a-expressing LLC-PK1 cell; format: functional, cell-based; conditions: pig
[2] = target: ATP-dependent translocase ABCB1 (Homo sapiens, UniProt P08183); assay: TP_TRANSPORTER: transepithelial transport (basal to apical) in MDR1-expressing LLC-PK1 cells; format: functional, cell-based; conditions: pig
Chain of ATP-dependent translocase ABCB1 (Homo sapiens, UniProt P08183) (P08183 whole entry): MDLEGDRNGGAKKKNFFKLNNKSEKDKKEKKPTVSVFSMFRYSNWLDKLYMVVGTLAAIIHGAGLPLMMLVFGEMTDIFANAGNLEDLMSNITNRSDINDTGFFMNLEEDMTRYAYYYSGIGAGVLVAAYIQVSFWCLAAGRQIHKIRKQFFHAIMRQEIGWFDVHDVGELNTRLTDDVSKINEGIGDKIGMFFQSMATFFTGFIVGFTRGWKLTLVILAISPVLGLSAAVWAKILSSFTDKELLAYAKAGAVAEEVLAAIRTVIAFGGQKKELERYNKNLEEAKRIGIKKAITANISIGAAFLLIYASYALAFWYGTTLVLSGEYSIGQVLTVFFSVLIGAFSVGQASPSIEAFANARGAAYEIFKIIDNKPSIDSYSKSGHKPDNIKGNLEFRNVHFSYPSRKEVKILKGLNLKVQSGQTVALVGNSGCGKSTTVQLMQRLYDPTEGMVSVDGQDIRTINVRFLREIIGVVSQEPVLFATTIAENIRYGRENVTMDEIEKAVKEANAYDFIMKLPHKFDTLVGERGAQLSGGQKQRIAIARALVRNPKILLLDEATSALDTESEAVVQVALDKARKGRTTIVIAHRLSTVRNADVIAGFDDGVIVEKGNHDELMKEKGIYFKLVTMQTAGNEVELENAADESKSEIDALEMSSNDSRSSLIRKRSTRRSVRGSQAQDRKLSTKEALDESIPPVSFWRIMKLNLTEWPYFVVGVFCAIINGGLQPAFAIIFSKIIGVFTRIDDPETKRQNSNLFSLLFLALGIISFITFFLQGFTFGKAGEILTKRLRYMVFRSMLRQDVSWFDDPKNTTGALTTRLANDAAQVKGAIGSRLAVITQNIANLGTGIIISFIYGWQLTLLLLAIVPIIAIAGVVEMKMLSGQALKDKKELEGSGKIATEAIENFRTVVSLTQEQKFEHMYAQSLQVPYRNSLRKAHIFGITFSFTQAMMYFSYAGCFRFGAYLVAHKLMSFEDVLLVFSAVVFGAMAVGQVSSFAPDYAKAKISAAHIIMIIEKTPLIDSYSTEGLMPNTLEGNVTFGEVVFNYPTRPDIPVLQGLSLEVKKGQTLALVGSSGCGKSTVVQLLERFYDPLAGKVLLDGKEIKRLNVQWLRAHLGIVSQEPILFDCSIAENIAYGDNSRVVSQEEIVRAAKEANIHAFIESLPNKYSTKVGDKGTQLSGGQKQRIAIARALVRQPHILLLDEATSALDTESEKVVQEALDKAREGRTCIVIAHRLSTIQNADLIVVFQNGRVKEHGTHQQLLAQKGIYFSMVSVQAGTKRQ

Chain of ATP-dependent translocase ABCB1 (Mus musculus, UniProt P21447) (P21447 whole entry): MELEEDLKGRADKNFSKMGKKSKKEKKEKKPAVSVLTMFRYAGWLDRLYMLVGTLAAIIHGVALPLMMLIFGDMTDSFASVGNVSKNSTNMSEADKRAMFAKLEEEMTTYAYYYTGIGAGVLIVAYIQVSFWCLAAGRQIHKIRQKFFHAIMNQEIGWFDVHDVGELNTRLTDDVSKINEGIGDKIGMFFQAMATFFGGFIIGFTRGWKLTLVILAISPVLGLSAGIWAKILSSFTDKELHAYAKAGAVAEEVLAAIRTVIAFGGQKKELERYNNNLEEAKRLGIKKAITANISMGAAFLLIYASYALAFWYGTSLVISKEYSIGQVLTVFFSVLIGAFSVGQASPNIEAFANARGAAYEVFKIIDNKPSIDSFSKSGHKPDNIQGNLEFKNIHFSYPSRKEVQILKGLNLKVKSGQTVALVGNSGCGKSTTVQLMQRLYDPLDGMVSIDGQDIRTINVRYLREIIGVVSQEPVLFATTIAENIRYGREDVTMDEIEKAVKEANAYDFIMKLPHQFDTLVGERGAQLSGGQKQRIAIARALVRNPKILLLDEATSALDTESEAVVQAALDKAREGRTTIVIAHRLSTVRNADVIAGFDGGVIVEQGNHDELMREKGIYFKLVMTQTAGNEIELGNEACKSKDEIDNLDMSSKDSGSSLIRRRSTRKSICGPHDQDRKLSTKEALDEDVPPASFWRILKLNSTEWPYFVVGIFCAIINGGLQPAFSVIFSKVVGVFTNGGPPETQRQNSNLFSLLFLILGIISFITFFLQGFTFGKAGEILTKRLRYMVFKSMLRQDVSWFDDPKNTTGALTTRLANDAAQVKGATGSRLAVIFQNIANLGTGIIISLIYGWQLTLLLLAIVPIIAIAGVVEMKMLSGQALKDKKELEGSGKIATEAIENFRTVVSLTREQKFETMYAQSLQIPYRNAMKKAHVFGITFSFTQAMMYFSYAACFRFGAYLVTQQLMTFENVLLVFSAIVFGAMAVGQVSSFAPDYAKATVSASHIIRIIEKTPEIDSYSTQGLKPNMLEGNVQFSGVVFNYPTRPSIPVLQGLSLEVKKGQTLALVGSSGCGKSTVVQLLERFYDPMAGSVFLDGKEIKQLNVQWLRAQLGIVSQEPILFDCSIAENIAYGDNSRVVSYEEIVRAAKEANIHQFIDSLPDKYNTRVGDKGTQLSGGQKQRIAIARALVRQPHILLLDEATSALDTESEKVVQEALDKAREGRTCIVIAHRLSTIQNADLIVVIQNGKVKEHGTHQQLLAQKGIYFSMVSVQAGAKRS

Row | Compound | Activity [1] | Activity [2]
1 | C[C@@H]1C[C@H]2[C@@H]3CCC4=CC(=O)C=C[C@]4(C)[C@@]3(F)[C@@H](O)C[C@]2(C)[C@@]1(O)C(=O)CO [DEXAMETHASONE] | substrate [+] | substrate [+]
2 | CN1CC[C@]23c4c5ccc(O)c4O[C@H]2[C@@H](O)C=C[C@H]3[C@H]1C5 [MORPHINE] | substrate [+] | 
3 | IVERMECTIN | substrate [+] | substrate [+]
